This passage reports inhibition and IC50 results from ChEMBL document CHEMBL4699505, “Lycosquarrines A-R, Lycopodium Alkaloids from Phlegmariurus squarrosus” (J Nat Prod, 2020).

pIC50: −log10 of the molar value.

One experiment has as its target T1, Acetylcholinesterase (Bos taurus) (UniProt P23795).
T1 sequence (whole entry): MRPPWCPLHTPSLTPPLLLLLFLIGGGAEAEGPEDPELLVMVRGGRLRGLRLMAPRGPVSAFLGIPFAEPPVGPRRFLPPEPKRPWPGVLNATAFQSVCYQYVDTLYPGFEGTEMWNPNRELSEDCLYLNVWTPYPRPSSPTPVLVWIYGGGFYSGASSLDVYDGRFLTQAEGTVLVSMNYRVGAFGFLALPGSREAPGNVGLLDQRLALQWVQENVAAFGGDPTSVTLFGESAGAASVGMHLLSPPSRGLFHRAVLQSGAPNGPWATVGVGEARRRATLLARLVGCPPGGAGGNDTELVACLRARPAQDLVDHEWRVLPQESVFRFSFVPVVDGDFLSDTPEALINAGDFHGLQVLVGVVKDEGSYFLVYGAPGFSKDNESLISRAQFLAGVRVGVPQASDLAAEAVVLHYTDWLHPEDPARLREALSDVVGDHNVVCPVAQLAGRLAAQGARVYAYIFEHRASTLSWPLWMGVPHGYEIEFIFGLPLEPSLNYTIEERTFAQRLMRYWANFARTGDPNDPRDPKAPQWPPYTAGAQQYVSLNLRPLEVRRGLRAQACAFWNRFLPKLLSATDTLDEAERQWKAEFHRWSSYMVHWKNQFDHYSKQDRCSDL
In words: Inhibition of bovine erythrocytes AChE using acetylthiocholine iodide as substrate at 100 uM incubated for 15 to 20 mins by Ellman's methods relative to control. Format: tissue-based. As to conditions: Erythrocyte, time min 15-20. A general note: In Ellman's method for cholinesterases, released thiocholine reacts with DTNB.
Consider `C[C@H]1C[C@]23C4=CCCN2CCC[C@H]3[C@@H](O)C[C@@H]4[C@@H]1O`, for which the inhibition is < 50%.
The same measure, in the same setting: with `C/C=C1\[C@@H]2Cc3[nH]c(=O)ccc3[C@@]1(N)C[C@H](CO)C2` the figure was < 50%.
With `C[C@H]1C[C@]23C4=CCCN2CCC[C@@H]3[C@H](O)[C@@H](O)[C@@H]4[C@@H]1O`, the inhibition is < 50%.
Same read-out and setting: the same measure for `C[C@H]1C[C@@]23[C@H]4CCCN2CC[C@H]2O[C@]23[C@H](C[C@@H]4OC(=O)CCc2ccc(O)cc2)[C@@H]1O`: < 50%.
On the same count and under the same terms, with `C[C@H]1C[C@@]23NCCC[C@@H]2[C@](O)(Cc2ncccc23)[C@H]1O` the figure was < 50%.
On the same count and under the same terms, the same measure for `CC(=O)NC1=C2CCC[N+]3([O-])CCC[C@]4(O)[C@H](C1)C[C@@H](C)C[C@]243` (stereo partly specified): < 50%; for `C[C@@H]1C[C@@]2(O)C[C@H](OC(=O)CCc3ccc(O)cc3)[C@@H]3CCCN4CC[C@H]5O[C@@]52[C@]34C1`: < 50%.
For `C[C@H]1C=C2N3CCC[C@@H]4C(=O)C[C@H]([C@@H]1O)[C@]24CCC3`, the inhibition is < 50%.
Still for that read-out and setting: the same measure for `C[C@H]1CC2=[N+]([O-])CCC[C@]23c2cccnc2C[C@@H]3[C@@H]1O`: < 50%; for `C[C@@H]1C[C@@]2(O)C[C@@H]3O[C@H]4CC[N+]5([O-])CCC[C@@H]3[C@@]5(C1)[C@]42O` (stereo partly specified): < 50%; for `C[C@H]1C[C@@]23NCCC[C@@H]2[C@H](Cc2ncccc23)[C@@H]1O`: < 50%.
As to `C[C@@H]1C[C@H]2Cc3[nH]c(=O)ccc3[C@@](N)(C1)/C2=C/CO`, the inhibition was < 50%.
As to `O=C1C[C@@H]2C=C(CO)C[C@@]34[C@@H]1CCCN3CCC[C@H]24`, the inhibition is < 50%.
The same measure, in the same setting: the same measure for `C[C@@H]1C[C@H]2Cc3[nH]c(=O)ccc3[C@]3(C1)NCC[C@@H](O)[C@H]23`: < 50%; for `O=c1ccc2c([nH]1)C[C@@H]1C[C@@H](CO)C[C@]23NCCC[C@H]13`: < 50%.
In the case of `C[C@@H]1C[C@H]2C[C@H](OC(=O)CCc3ccc(O)cc3)[C@@H]3CCCN4CC[C@H]5O[C@]25[C@]34C1`, the inhibition is < 50%.
As for `C[C@@H]1C[C@H]2C[C@@H]3O[C@]24[C@H](O)CCN2CCC[C@@H]3[C@]24C1`, the inhibition is < 50%.
Same read-out and setting: the same measure for `CO[C@@]12C[C@@H]3C[C@@H](C)C[C@@]4(O1)N1CCC[C@@]2(O)[C@]34CCC1`: < 50%.

The next experiment concerns the target T2, Acetylcholinesterase (Bos taurus, UniProt P23795).
T2 sequence (P23795 whole entry): T1 sequence (whole entry)
Put plainly: Inhibition of bovine erythrocytes AChE using acetylthiocholine iodide as substrate incubated for 15 to 20 mins by Ellman's methods.
Details: not given
The arrangement: species or system Erythrocyte.
With `C/C=C1\[C@H]2C=C(C)C[C@]1(N)c1ccc(=O)[nH]c1C2` [HUPERZINE A], the pIC50 was 7.00.
The same measure, in the same setting: with `C/C=C1\[C@H]2C=C(C(=O)OC)C[C@]1(N)c1ccc(=O)[nH]c1C2` the figure was 5.38; with `C/C=C1\[C@H]2C=C(CO)C[C@]1(N)c1ccc(=O)[nH]c1C2`, 5.68.

Broadly, the inhibition is the relative decrease from the control value, in per cent. As a reminder, the pIC50 is the negative decadic logarithm of the IC50, by convention in mol/L. High values mean a small IC50, low ones a large IC50.
